Tests used:
[1] = test system: C6 cells; assay: Intracellular level of 5-ALA-induced PpIX by flow cytometric analysis, C6; assay type: cell-based, rat; settings: 1 mM 5-ALA for 4 hours, relative to 5-ALA-not-treated cells, average±SE
Method: (§1) Two types of rat glioma cell lines (9L and C6) and human glioma cell lines (U251 and T98G) were used. Before use, 9L and T98G were cultured in RPMI-1640 at 37° C. for several days, whereas C6 and U251 were cultured in 10% FBS-added Dulbecco's modified Eagle's medium (DMEM) at 37° C. for several days. These cell lines were maintained at 37° C. in 5% CO2 in a humidified incubator. The cells were subcultured at an exponential growth phase thereof, using 0.05% trypsin solution containing 0.5 mM ethylenediamine tetraacetate. 70% confluent cells were used in the subsequent experiments. […]
(§2) The cells were seeded on a 100-mm culture dish, and were then cultured. […] Immediately after the recovery, the cells were re-suspended in cold PBS/FBS, and were then analyzed using a flow cytometer (EC800; Sony Biotechnology, Tokyo, Japan). Generally, 30,000 cells contained in each sample were evaluated. Using 488-nm argon ion laser, fluorescence was excited from intracellular PpIX, and the fluorescence was then detected using a 640/30 nm band-pass filter. […] The flow cytometric data were analyzed using FlowJo (Tree Star Inc., Ashland, Oreg., USA). The mean fluorescence intensity (MFI) of PpIX fluorescence in the 5-ALA-treated cells, with respect to that of 5-ALA-not-treated cells, was calculated for each cell line.

[2] = test system: T98G cells; assay: Intracellular level of 5-ALA-induced PpIX by flow cytometric analysis, T98G; assay type: cell-based, human; settings: 1 mM 5-ALA for 4 hours, relative to 5-ALA-not-treated cells, average±SE
Method: as §1, §2

[3] = test system: 9L cells; assay: Intracellular level of 5-ALA-induced PpIX by flow cytometric analysis, 9L; assay type: cell-based, rat; settings: average±SE
Method: (§3) Two types of rat glioma cell lines (9L and C6) and human glioma cell lines (U251 and T98G) were used. Before use, 9L and T98G were cultured in RPMI-1640 at 37° C. for several days, whereas C6 and U251 were cultured in 10% FBS-added Dulbecco's modified Eagle's medium (DMEM) at 37° C. for several days. These cell lines were maintained at 37° C. in 5% CO2 in a humidified incubator. The cells were subcultured at an exponential growth phase thereof, using 0.05% trypsin solution containing 0.5 mM ethylenediamine tetraacetate. 70% confluent cells were used in the subsequent experiments. 5-ALA was dissolved in RPMI-1640 (9L and T98G), or in 10% FBS-added DMEM (C6 and U251), to a final concentration of 1 mM.
(§4) The cells were seeded on a 100-mm culture dish, and were then cultured. The cells were incubated in a complete medium containing 1 mM 5-ALA for 4 hours, and were then washed with PBS. The resulting cells were peeled from the bottom layer by a trypsin treatment, and were then recovered by centrifugation (400×g, 3 min, and 4° C.). Immediately after the recovery, the cells were re-suspended in cold PBS/FBS, and were then analyzed using a flow cytometer (EC800; Sony Biotechnology, Tokyo, Japan). Generally, 30,000 cells contained in each sample were evaluated. Using 488-nm argon ion laser, fluorescence was excited from intracellular PpIX, and the fluorescence was then detected using a 640/30 nm band-pass filter. In order to prevent photoactivation of 5-ALA-induced PpIX, all procedures were carried out in a dark room. The flow cytometric data were analyzed using FlowJo (Tree Star Inc., Ashland, Oreg., USA). The mean fluorescence intensity (MFI) of PpIX fluorescence in the 5-ALA-treated cells, with respect to that of 5-ALA-not-treated cells, was calculated for each cell line.

[4] = test system: Iba1-positive macrophages in subcutaneously transplanted 9L gliosarcoma; assay: Pathologic examination of subcutaneous tumor, Iba1 staining of macrophages and microdensitometry; assay type: in vivo, rat
Method: After completion of the immobilization, all of the tumor samples were cut at the center of tumor in the longitudinal direction. The obtained fragments were each stained with hematoxylin and eosin (HE), and were also stained with Iba1 or CD68 for detection of macrophages. Briefly, the sample was bathed in water for pre-treatment (40 minutes, 95° C.), and the deparaffinized portion was then washed with KN Buffer (KN-09002; Pathology Institute Corp, Toyama, Japan). Subsequently, the fragment was incubated with goat polyclonal anti-Iba1 (1:3000, ab107159, Abcam) or anti-CD68 antibody (1:100, MCA-341R, AbD) for 30 minutes, and were further washed with KN Buffer. Subsequently, regarding Iba1, the fragment was incubated with Simple Stain™ MAX-PO (G) (H1301; Nichirei Bioscience Inc. Japan) for 30 minutes. Regarding CD68, the fragment was incubated with Envision+Dual Link HRP-label/polymer reagent (Dako: K4061) for 30 minutes. The resultant was finally washed with KN Buffer, and was then treated with diaminobenzidine (DAB) for 10 minutes for color development. […]
Moreover, the procedures of the previous study (Prall F, Maletzki C, Linnebacher M: Microdensitometry of osteopontin as an immunohistochemical prognostic biomarker in colorectal carcinoma tissue microarrays: potential and limitations of the method in ‘biomarker pathology’. Histopathology 61: 823-32, 2012.) were partially modified, and using public domain software, Image J (Wayne Rasband, National Institute of Mental Health, Bethesda, Md.), microdensitometry was carried out regarding immunohistochemical quantitative evaluation of Iba1 on a digital photomicrograph. […] In order to quantify the color signals of immunohistochemical DAB of Iba1, the image data of all samples were transferred into Image J, and were then converted to 8-bit grayscale images. […] The present inventors have defined the mean gray value (MGV) of all of the tumor samples in a control group (n=5) as a representative value, and the relative intensities of MGVs in other groups to the aforementioned representative value were then calculated.

[5] = test system: U251 cells; assay: Intracellular level of 5-ALA-induced PpIX by flow cytometric analysis, U251; assay type: cell-based, human; settings: average±SE
Method: as §3, §4

[6] = 1 mM 5-ALA for 4 hours, relative to 5-ALA-not-treated cells
[7] = 4 hours after ionizing irradiation
[8] = 12 hours after ionizing irradiation
[9] = 24 hours after ionizing irradiation

NCC(=O)CCC(=O)O [ALA, 5-aminolevulinic acid]
relative MFI of PpIX fluorescence [1]: 20.2±0.56
relative MFI of PpIX fluorescence [2]: 15.3±0.89
relative MFI of PpIX fluorescence [3, 6]: 21.5±0.12
relative MFI of PpIX fluorescence after ionizing irradiation [3, 7]: 15.2±0.15
relative MFI of PpIX fluorescence after ionizing irradiation [3, 8]: 15.9±0.73
relative MFI of PpIX fluorescence after ionizing irradiation [3, 9]: 13.4±2.43
mean gray value (MGV) of Iba1, microdensitometry, versus other groups ([4]; ALA multiple-dose + ionizing radiation multiple-dose group, p<0.05 vs RT group, p<0.01 vs ALA group): significantly higher
Iba1-positive macrophages in subcutaneous tumor ([4]; ALA multiple-dose administration group, 16th day after treatment): mainly gathered to the surface of the subcutaneous tumor
gathering of Iba1-positive macrophages to surface and inside of subcutaneous tumor ([4]; ionizing radiation combined with ALA administration, 16th day after treatment): significantly observed
relative MFI of PpIX fluorescence [5, 6]: 37.6±0.12
relative MFI of PpIX fluorescence after ionizing irradiation [5, 7]: 41.6±0.20
relative MFI of PpIX fluorescence after ionizing irradiation [5, 8]: 44.2±3.67
relative MFI of PpIX fluorescence after ionizing irradiation [5, 9]: 51.1±3.76

From patent publication US20170056351A1, “COMPOSITION FOR INDUCING TUMOR IMMUNITY” (UNIVERSITY OF OCCUPATIONAL AND ENVIRONMENTAL HEALTH, JAPAN, priority 2014, published 2017)
